Assays:
[1] = target: Transthyretin (Homo sapiens, UniProt P02766); assay: Binding affinity to wild type TTR (unknown origin) expressed in Escherichia coli BL21/DE3 by Circular dichroism spectroscopy
[2] = target: Transthyretin (Homo sapiens, UniProt P02766, V50M); assay: Stabilization of TTR V30M mutant (unknown origin) assessed as inhibition of protein-mediated amyloid fibril formation

| SMILES | Kd [1] [µM] | Kd [2] [µM] |
| --- | --- | --- |
| O=C(O)c1ccccc1Nc1cccc(C(F)(F)F)c1 [FLUFENAMIC ACID] | 0.03 |  |
| O=C(O)Cc1ccccc1Nc1c(Cl)cccc1Cl [DICLOFENAC] | 0.06 |  |
| O=C(CCc1ccc(O)cc1)c1c(O)cc(O)cc1O [PHLORETIN] |  | 8.1 |
| COc1cc(O)c(CC=C(C)C)c(O)c1C(=O)/C=C/c1ccc(O)cc1 [XANTHOHUMOL] |  | 12 |
